Data from ChEMBL document CHEMBL4219140, “First discovery of a potential carbonate prodrug of NNRTI drug candidate RDEA427 with submicromolar inhibitory activity against HIV-1 K103N/Y181C double mutant strain” (Bioorg Med Chem Lett, 2018).
Activity calls are given as the source filed them. No cut-off for these calls is given here.

Key:
[1] = system: Human immunodeficiency virus 1; assay: Resistance index, ratio of EC50 for HIV1 RES056 harboring K103N/Y181C double mutant infected in human MT4 cells to EC50 for wild-type HIV1 3B infected in human MT4 cells; type: functional
[2] = Selectivity index, ratio of CC50 for human MT4 cells to EC50 for HIV1 3B expressing wild type reverse transcriptase infected in human MT4 cells; type: toxicity, cell-based; conditions: read-out: Ratio CC50/EC50
[3] = system: Human immunodeficiency virus 1; assay: Antiviral activity against HIV1 RES056 expressing reverse transcriptase K103N/Y181C double mutant infected in human MT4 cells assessed as protection against virus-induced cytopathic effect after 5 days by MTT assay; type: functional, organism-based; conditions: Human immunodeficiency virus 1, RES056, MT4, 120 h
[4] = Selectivity index, ratio of CC50 for human MT4 cells to EC50 for HIV1 RES056 expressing reverse transcriptase K103N/Y181C double mutant; type: toxicity; conditions: read-out: Ratio CC50/EC50
[5] = Cytotoxicity against human MT4 cells after 5 days by MTT assay; type: cell-based
[6] = system: Human immunodeficiency virus 1; assay: Antiviral activity against HIV1 3B expressing wild type reverse transcriptase infected in human MT4 cells assessed as protection against virus-induced cytopathic effect after 5 days by MTT assay; type: functional, organism-based; conditions: Human immunodeficiency virus 1, 3B, MT4, 120 h
[7] = target: Human immunodeficiency virus type 1 reverse transcriptase (Human immunodeficiency virus 1, UniProt Q72547); assay: Inhibition of recombinant wild-type HIV1 reverse transcriptase p66/p51 RNA-dependent DNA polymerase activity assessed as reduction in biotin-dUTP incorporation using poly(rA)/oligo(dT)16 as template/primer after 40 mins by PicoGreen dye based spectrofluorometric analysis
[8] = Prodrug conversion in human plasma assessed as RDEA427 formation by measuring remaining prodrug levels at 100 uM measured after 30 mins by LC-MS/MS analysis; type: ADME, cell-free; conditions: 0.5 h
[9] = system: Human immunodeficiency virus 2; assay: Antiviral activity against HIV2 ROD infected in human MT4 cells after 5 days by MTT assay; type: functional, organism-based; conditions: ISOLATE ROD
[10] = Prodrug conversion in human plasma assessed as RDEA427 formation by measuring remaining prodrug levels at 100 uM measured after 10 mins by LC-MS/MS analysis; type: ADME, cell-free
[11] = Prodrug conversion in human plasma assessed as RDEA427 formation by measuring remaining prodrug levels at 100 uM measured after 120 mins by LC-MS/MS analysis; type: ADME, cell-free; conditions: 2 h
[12] = Prodrug conversion in human plasma assessed as RDEA427 formation at 100 uM by LC-MS/MS analysis; type: ADME, cell-free; conditions: TDE = time-dependent effect
[13] = Prodrug conversion in human plasma assessed as RDEA427 formation by measuring remaining prodrug levels at 100 uM measured after 60 mins by LC-MS/MS analysis; type: ADME, cell-free; conditions: 1 h
[14] = Metabolic stability in human plasma assessed as parent compound remaining at 100 uM after 30 mins by LC-MS/MS analysis; type: ADME, cell-free; conditions: read-out: Stability
[15] = Metabolic stability in human plasma assessed as parent compound remaining at 100 uM after 120 mins by LC-MS/MS analysis; type: ADME, cell-free; conditions: read-out: Stability
[16] = Metabolic stability in human plasma assessed as parent compound remaining at 100 uM after 60 mins by LC-MS/MS analysis; type: ADME, cell-free; conditions: read-out: Stability
[17] = Metabolic stability in human plasma assessed as parent compound remaining at 100 uM after 10 mins by LC-MS/MS analysis; type: ADME, cell-free; conditions: read-out: Stability

Structure (SMILES)	Ratio EC50 [1]	selectivity ratio [2]	EC50 [3]	selectivity ratio [4]	CC50 at 120 h [5]	EC50 [6]	IC50 [7]	Stability [8]	Activity [9]	Stability [10]	Stability [11]	Drug metabolism [12]	Stability [13]	remaining at 0.5 h, 100 µM [14]	remaining at 2 h, 100 µM [15]	remaining at 1 h, 100 µM [16]	remaining at 10 min, 100 µM [17]
Cc1cc(C#N)cc(C)c1Oc1nc(Nc2ccc(C#N)cc2)nc2[nH]ccc12	19.1	≥ 425	56 nM	≥ 22	≥ 1240 nM	2.9 nM	16 nM										
O=C1Nc2ccc(Cl)cc2[C@@](C#CC2CC2)(C(F)(F)F)O1 [EFAVIRENZ]	30	> 1320	140 nM	> 44	> 6340 nM	4.8 nM											
Cc1cc(C#N)cc(C)c1Oc1nc(Nc2ccc(C#N)cc2)nc2c1ccn2COC(=O)OC(C)C	27.3	190	150 nM	7	1050 nM	5.5 nM	264 nM	73.9%	inactive	87.8%	56.4%	Tde	53.3%				
CC(C)[N+](C)(CCOC(=O)C1c2ccccc2Oc2ccccc21)C(C)C [PROPANTHELINE]														19.4%	0.5%	5.1%	54.8%
Cc1ccnc2c1NC(=O)c1cccnc1N2C1CC1 [NEVIRAPINE]		> 34	> 15000 nM	1	> 15000 nM	440 nM											
Cc1cc(C#N)cc(C)c1Oc1nc(Nc2ccc(C#N)cc2)nc(N)c1Br [ETRAVIRINE]	12	> 1170	47 nM	> 97	> 4590 nM	3.9 nM											
